These results are taken from US9096615B2, “Bridged bicyclic amino thiazine dioxide compounds as inhibitors of beta-secretase and methods of use thereof” (AMGEN INC., priority 2013, dated 2015).

In assay [1] the target is T1, human Bace2 protein (Homo sapiens, UniProt Q9Y5Z0).
T1 construct: V5 (C); 6-His (C)
T1 sequence (Q9Y5Z0 63-518): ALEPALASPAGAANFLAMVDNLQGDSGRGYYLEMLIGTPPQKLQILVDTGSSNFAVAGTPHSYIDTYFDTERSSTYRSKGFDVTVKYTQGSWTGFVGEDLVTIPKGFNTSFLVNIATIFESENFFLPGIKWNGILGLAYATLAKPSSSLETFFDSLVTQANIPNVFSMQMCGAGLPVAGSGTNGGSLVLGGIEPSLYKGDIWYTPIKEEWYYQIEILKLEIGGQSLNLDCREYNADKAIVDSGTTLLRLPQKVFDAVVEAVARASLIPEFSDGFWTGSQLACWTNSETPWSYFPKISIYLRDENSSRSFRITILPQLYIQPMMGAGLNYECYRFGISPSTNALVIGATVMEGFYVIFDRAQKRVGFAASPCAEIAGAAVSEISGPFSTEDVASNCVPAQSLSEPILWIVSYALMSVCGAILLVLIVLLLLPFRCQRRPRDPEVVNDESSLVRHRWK
The assay can be described thus: In vitro enzymatic BACE2 FRET assay. In kind it is biochemical. Particulars: average IC50; read-out: BACE2 Enzyme assay IC50. A digest of the protocol:
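Human Bace2 with C-terminal V5/6-His tag (0.2 nM) pre-incubated 1 h with inhibitor in 0.05 M acetate pH 4.2, 10% DMSO, 100 uM genapol; reaction started with 50 nM FRET peptide substrate, run 1 h. Stopped with Tris to neutral pH; fluorescence increase from substrate cleavage measured.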

In assay [2] the target is BACE1 (Homo sapiens, UniProt P56817). The assay can be described thus: In vitro enzymatic BACE FRET assay. Conditions: average IC50; read-out: BACE1 Enzyme assay IC50. In kind it is biochemical. The gist of the method: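 Fluorescence (excitation 488 nm, […]) from cleavage of quenched peptide substrate (50 nM), reaction run 1 h after 1 h enzyme–inhibitor pre-incubation, then neutralised with Tris. Conditions: 0.2 nM enzyme, pH 4.2 acetate 0.05 M, 10% DMSO final, 100 uM genapol.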

The structures appear in SMILES notation.

Sequence of BACE1 (P56817 46-501, species assumed): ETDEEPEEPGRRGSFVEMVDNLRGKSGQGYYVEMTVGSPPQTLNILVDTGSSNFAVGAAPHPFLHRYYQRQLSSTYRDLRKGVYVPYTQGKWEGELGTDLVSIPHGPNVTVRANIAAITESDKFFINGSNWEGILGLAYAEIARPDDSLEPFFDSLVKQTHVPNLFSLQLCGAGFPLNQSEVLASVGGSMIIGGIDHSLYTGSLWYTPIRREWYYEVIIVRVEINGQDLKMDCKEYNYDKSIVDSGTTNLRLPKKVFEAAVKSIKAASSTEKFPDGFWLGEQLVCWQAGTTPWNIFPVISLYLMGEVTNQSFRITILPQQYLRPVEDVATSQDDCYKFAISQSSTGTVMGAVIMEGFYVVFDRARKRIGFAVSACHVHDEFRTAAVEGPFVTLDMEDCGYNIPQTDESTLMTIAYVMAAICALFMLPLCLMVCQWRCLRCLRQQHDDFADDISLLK

Turning to `C[C@]1(c2cc(Nc3ncnc4cc(C(F)(F)F)cnc34)ccc2F)N=C(N)[C@@]2(C)CC[C@@H]1S2(=O)=O` [Example 106, N-(3-((1S,2R,5R)-4-amino-2,5-dimethyl-8,8-dioxido-8-thia-3-azabicyclo[3.2.1]oct-3-en-2-yl)-4-fluorophenyl)-7-(trifluoromethyl)pyrido[3,2-d]pyrimidin-4-amine], the half-maximal inhibitory concentration (IC50) in assay [1] is 67 nM; in assay [2], 11 nM.
As for `Cc1cc(Cl)cnc1C(=O)Nc1ccc(F)c([C@@]2(C)N=C(N)[C@@]3(CF)CC[C@@H]2S3(=O)=O)c1` [Example 88, N-(3-((1S,2R,5R)-4-amino-5-(fluoromethyl)-2-methyl-8,8-dioxido-8-thia-3-azabicyclo[3.2.1]oct-3-en-2-yl)-4-fluorophenyl)-5-chloro-3-methyl-2-pyridinecarboxamide], the IC50 turned out to be 0.8 nM in assay [1] and 3 nM in assay [2].
The matching figures for `COc1cnc2c(Nc3ccc(F)c([C@@]4(C)N=C(N)[C@@]5(C)CC[C@@H]4S5(=O)=O)c3)nccc2n1` [Example 80, N-(3-((1S,2R,5R)-4-amino-2,5-dimethyl-8,8-dioxido-8-thia-3-azabicyclo[3.2.1]oct-3-en-2-yl)-4-fluorophenyl)-2-methoxypyrido[3,4-b]pyrazin-5-amine]: 15 nM and 8 nM.
`C[C@]1(c2cc(Nc3ncnc4cc(C#N)cnc34)ccc2F)N=C(N)[C@@]2(CF)CC[C@@H]1S2(=O)=O` [Example 40, 4-((3-((1S,2R,5R)-4-amino-5-(fluoromethyl)-2-methyl-8,8-dioxido-8-thia-3-azabicyclo[3.2.1]oct-3-en-2-yl)-4-fluorophenyl)amino)pyrido[3,2-d]pyrimidine-7-carbonitrile]: the 50% inhibitory concentration (IC50) stood at 22 nM in assay [1] and 8 nM in assay [2].
`COc1cnc2c(Nc3ccc(F)c([C@@]4(C)N=C(N)[C@@]5(CF)CC[C@@H]4S5(=O)=O)c3)nccc2c1` [Example 56, N-(3-((1S,2R,5R)-4-amino-5-(fluoromethyl)-2-methyl-8,8-dioxido-8-thia-3-azabicyclo[3.2.1]oct-3-en-2-yl)-4-fluorophenyl)-3-methoxy-1,7-naphthyridin-8-amine]: the IC50 in assay [1] amounted to 18.5 nM; in assay [2], 18.8 nM.
In the case of `CC#CCOc1cnc(C(=O)Nc2ccc(F)c([C@@]3(C)N=C(N)[C@@]4(C)CC[C@@H]3S4(=O)=O)c2)cn1` [Example 82, N-(3-((1S,2R,5R)-4-amino-2,5-dimethyl-8,8-dioxido-8-thia-3-azabicyclo[3.2.1]oct-3-en-2-yl)-4-fluorophenyl)-5-(2-butyn-1-yloxy)-2-pyrazinecarboxamide], the results for the IC50 in assay [1] and in assay [2] were 3 nM and 0.5 nM, respectively.
As for `Cc1cc(OC(F)F)cnc1C(=O)Nc1ccc(F)c([C@@]2(C)N=C(N)[C@@]3(CF)CC[C@@H]2S3(=O)=O)c1` [Example 102, N-(3-((1S,2R,5R)-4-amino-5-(fluoromethyl)-2-methyl-8,8-dioxido-8-thia-3-azabicyclo[3.2.1]oct-3-en-2-yl)-4-fluorophenyl)-5-(difluoromethoxy)-3-methyl-2-pyridinecarboxamide], the figures for the IC50 in assay [1] and in assay [2] were 8 nM and 4 nM, respectively.
The matching figures for `COc1cnc2c(Nc3ccc(F)c([C@@]4(C)N=C(N)[C@@]5(CF)CC[C@@H]4S5(=O)=O)c3)ncnc2c1` [Example 97, N-(3-((1S,2R,5R)-4-amino-5-(fluoromethyl)-2-methyl-8,8-dioxido-8-thia-3-azabicyclo[3.2.1]oct-3-en-2-yl)-4-fluorophenyl)-7-methoxypyrido[3,2-d]pyrimidin-4-amine]: 20 nM and 7 nM.
For `COc1cnc(C(=O)Nc2ccc(F)c([C@@]3(C)N=C(N)[C@@]4(CF)CC[C@@H]3S4(=O)=O)c2)c(C)n1` [Example 76, N-(3-((1S,2R,5R)-4-amino-5-(fluoromethyl)-2-methyl-8,8-dioxido-8-thia-3-azabicyclo[3.2.1]oct-3-en-2-yl)-4-fluorophenyl)-5-methoxy-3-methyl-2-pyrazinecarboxamide], the IC50 in assay [1] came out at 4 nM; in assay [2], 10 nM.
